# Laboratory results from patent US20240058347A1, “DOSAGES FOR HDAC TREATMENT WITH REDUCED SIDE EFFECTS” (VIRACTA THERAPEUTICS, INC., priority 2019, published 2024).
# Assays:
# HDAC5 = HDAC5 (Homo sapiens, UniProt Q9UQL6); test: in vitro HDAC inhibition assay (fluorescence), HDAC5; format: biochemical
# Method: (§1) Briefly, all of the compounds are dissolved in DMSO. A series of dilutions of the compounds were prepared with 10% DMSO in HDAC assay buffer and 5 μl of the dilution was added to a 50 μl reaction so that the final concentration of DMSO is 1% in all of reactions. The compounds were pre-incubated in duplicate at RT for 1 hour in a mixture containing HDAC assay buffer, 5 μg BSA, HDAC enzyme (see Table 7) and a the particular HDACi. After 1 hour, the enzymatic reactions were initiated by the addition of HDAC substrate (BPS Bioscience) to a final concentration of 10 μM or 2 μM. The enzymatic reaction proceeded for 30 minutes at 37° C.
# (§2) HDAC activity assays were performed in duplicates at each concentration. The fluorescent intensity data were analyzed using the computer software, Graphpad Prism. In the absence of the compound, the fluorescent intensity (Ft) in each data set was defined as 100% activity. In the absence of HDAC, the fluorescent intensity (Fb) in each data set was defined as 0% activity. The percent activity in the presence of each compound was calculated according to the following equation: % activity=(F−Fb)/(Ft−Fb), where F=the fluorescent intensity in the presence of the compound. […]
# [1] = system: Histone 3 acetylation in peripheral blood mononuclear cells; test: H3 acetylation in peripheral blood mononuclear cells of healthy donors, flow cytometry; format: cell-based, humans; settings: PBMC of healthy donors
# Text: Percentage of cells with H3 acetylation, as determined by flow cytometry, is shown.
# Since H3 acetylation is a pharmacodynamic biomarker of Nstat activity, acetylation of H3 was examined in treated cells.
# HDAC8 = molecular target: T1, HDAC8 (Homo sapiens, UniProt Q9BY41); test: biochemical
# T1 sequence (Q9BY41 1-377): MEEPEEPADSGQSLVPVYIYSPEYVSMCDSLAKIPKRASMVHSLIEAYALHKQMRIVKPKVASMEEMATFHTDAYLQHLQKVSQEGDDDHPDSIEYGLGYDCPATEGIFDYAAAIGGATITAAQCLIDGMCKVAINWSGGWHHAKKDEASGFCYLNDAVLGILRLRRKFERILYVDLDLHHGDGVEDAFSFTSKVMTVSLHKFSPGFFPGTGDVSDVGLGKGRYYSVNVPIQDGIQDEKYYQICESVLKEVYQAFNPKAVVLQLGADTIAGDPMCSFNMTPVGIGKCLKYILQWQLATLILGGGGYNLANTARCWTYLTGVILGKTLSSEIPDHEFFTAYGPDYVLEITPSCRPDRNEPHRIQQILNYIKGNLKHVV
# Method: as §1
# HDAC activity assays were performed in duplicates at each concentration. The fluorescent intensity data were analyzed using the computer software, Graphpad Prism. In the absence of the compound, the fluorescent intensity (Ft) in each data set was defined as 100% activity. In the absence of HDAC, the fluorescent intensity (Fb) in each data set was defined as 0% activity. The percent activity in the presence of each compound was calculated according to the following equation: % activity=(F−Fb)/(Ft−Fb), where F=the fluorescent intensity in the presence of the compound.
# The values of % activity versus a series of compound concentrations were then plotted using non-linear regression analysis of Sigmoidal dose-response curve generated with the equation Y=B+(T−B)/1+10^((Log C50−X)×Hill Slope), where Y=percent activity, B=minimum percent activity, T=maximum percent activity, X=logarithm of compound and Hill Slope=slope factor or Hill coefficient. The IC50 value was determined by the concentration causing a half-maximal percent activity.
# [2] = system: P3HR1 Burkitt's lymphoma cells; test: Cell death (7AAD staining) of EBV infected cell line, Nstat 3 days then ganciclovir 3 days; format: cell-based; settings: FIG. 4
# Method: All test conditions were run in triplicate. Cell death was measured by 7AAD staining.
# HDAC7 = molecular target: T2, HDAC7 (Homo sapiens, UniProt Q8WUI4); test: in vitro HDAC inhibition assay (fluorescence), HDAC7; format: biochemical; settings: HDAC7
# T2 sequence (Q8WUI4 1-952): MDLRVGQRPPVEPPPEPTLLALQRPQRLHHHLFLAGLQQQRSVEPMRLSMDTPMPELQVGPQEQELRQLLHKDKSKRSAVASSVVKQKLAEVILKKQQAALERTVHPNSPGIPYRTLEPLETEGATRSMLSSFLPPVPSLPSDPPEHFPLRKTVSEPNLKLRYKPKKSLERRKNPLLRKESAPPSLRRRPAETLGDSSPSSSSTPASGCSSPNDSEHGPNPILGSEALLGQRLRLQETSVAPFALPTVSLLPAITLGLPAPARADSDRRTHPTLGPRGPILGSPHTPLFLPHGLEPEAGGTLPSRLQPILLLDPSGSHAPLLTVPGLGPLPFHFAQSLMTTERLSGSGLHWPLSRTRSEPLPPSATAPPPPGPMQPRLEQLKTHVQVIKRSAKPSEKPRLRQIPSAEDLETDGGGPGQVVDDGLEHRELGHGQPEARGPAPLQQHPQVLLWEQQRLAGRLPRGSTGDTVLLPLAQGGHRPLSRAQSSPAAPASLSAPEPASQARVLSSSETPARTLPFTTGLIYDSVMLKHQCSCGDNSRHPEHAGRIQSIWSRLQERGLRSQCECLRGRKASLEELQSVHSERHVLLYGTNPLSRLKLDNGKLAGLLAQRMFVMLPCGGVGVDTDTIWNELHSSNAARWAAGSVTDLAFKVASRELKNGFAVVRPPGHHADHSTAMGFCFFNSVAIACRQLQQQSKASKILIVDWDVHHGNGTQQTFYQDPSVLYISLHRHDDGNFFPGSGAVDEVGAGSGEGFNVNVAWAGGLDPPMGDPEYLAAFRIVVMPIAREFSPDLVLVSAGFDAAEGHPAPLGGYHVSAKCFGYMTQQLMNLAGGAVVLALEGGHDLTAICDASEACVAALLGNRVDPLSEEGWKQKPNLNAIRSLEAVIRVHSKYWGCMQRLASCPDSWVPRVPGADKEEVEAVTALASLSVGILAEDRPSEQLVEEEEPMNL
# Method: as §1, §2
# HDAC4 = HDAC4 (Homo sapiens, UniProt P56524); test: in vitro HDAC inhibition assay (fluorescence), HDAC4; format: biochemical; settings: HDAC4
# Method: as §1, §2
# HDAC5, sequence (Q9UQL6 whole entry): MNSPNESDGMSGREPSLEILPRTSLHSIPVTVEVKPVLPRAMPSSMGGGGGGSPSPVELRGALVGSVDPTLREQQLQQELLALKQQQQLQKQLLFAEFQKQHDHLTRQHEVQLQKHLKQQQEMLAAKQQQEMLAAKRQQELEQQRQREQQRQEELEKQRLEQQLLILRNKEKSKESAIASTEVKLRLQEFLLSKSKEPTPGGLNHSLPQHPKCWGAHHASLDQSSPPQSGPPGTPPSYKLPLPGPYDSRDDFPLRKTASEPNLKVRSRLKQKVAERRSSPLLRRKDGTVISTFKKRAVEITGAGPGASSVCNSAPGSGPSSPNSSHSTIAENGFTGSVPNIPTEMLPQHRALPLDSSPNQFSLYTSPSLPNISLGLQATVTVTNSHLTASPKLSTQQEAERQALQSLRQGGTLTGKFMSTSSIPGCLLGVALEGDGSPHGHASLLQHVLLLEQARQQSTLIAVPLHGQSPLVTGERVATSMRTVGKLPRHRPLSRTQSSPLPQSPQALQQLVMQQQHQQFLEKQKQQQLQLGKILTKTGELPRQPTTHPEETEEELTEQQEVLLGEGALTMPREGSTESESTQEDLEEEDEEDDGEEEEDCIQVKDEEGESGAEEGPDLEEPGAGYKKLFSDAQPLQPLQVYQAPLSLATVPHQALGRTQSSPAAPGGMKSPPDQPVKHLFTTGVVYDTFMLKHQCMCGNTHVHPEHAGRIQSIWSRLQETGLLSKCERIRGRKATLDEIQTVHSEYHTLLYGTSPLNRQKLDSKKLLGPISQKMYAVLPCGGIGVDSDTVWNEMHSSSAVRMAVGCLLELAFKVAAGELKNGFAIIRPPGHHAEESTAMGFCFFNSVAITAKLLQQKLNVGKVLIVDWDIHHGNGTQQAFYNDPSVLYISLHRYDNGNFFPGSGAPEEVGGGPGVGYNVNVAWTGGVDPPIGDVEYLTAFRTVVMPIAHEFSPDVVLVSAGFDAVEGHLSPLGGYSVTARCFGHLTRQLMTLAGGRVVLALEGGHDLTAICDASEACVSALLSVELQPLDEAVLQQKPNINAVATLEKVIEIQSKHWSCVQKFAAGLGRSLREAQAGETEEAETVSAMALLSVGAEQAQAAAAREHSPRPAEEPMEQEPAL
# HDAC4, sequence (P56524 whole entry): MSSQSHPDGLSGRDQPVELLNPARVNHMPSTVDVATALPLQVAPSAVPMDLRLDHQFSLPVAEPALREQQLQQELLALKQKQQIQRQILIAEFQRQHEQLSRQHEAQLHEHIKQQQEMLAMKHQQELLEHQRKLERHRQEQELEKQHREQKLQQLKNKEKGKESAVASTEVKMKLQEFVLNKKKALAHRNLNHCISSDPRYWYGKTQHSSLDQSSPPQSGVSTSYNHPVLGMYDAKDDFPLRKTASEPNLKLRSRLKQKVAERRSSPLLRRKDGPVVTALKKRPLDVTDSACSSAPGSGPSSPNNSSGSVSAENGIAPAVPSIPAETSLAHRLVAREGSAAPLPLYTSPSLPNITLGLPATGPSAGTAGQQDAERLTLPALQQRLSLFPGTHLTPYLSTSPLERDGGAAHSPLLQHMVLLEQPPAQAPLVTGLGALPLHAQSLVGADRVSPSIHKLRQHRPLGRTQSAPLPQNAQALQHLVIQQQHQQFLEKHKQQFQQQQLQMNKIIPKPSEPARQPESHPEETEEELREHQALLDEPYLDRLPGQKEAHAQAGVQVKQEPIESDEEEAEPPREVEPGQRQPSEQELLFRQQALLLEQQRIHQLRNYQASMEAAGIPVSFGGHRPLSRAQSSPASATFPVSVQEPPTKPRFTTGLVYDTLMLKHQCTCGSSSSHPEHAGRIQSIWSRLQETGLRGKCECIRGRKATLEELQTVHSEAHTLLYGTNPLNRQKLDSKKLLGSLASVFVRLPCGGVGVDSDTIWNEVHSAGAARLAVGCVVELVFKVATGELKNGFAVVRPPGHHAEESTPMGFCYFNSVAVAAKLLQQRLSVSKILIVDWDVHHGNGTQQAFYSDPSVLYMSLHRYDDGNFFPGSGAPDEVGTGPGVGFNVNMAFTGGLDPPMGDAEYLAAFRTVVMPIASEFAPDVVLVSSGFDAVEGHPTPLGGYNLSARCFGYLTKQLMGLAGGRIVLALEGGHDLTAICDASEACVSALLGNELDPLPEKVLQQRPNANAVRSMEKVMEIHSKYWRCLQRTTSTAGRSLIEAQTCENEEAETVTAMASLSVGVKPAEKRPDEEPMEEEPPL
smiles,measurement,setting,value
"O=C(NO)c1cnc(N2CC3C(C2)C3NCc2ccc3cc(F)ccc3n2)nc1 (centres unmarked) [Nstat, 2-(6-{[(6-Fluoroquinolin-2-yl)methyl]amino}-3-azabicyclo[3.1.0]hex-3-yl)-N-hydroxypyrimidine-5-carboxamide]",IC50,HDAC5,390 nM
same,potency in inducing elevated levels of Histone 3 acetylation,"[1]; even at a dose of 100 nM, FIG. 2",much more potent than entinostat
same,duration of effect on H3 acetylation (time-course),"[1]; even at doses down to 10 nM, FIG. 3",long-lasting
same,IC50,HDAC8,860 nM
same,increase of cytotoxic activity when combined with Ganciclovir,"[2]; Nstat 3 days, wash, ganciclovir 3 days",~40%
same,increased cytotoxicity with ganciclovir after Nstat removal,[2]; after 3 days of washout,seen even after Nstat removal
same,IC50,HDAC7,1600 nM
same,IC50,HDAC4,1000 nM
